In patent US20250161288A1, “MULTIMERIZER PHARMACEUTICAL COMPOSITIONS” (PONCE THERAPEUTICS, INC., priority 2022, published 2025):

Tests used:
[1] = format: physicochemical
Source text: As such, rimiducid is categorized as a biopharmaceutical classification system (BCS) class IV drug. Although there are exceptions, BCS class IV compounds generally are viewed as poor candidates for oral delivery (Markovic et al., Pharmaceutics 2020, 12(12), 1175. doi.org/10.3390/pharmaceutics12121175). For a compound to be absorbed, it must first be in solution. […] Once solubilized, rimiducid must cross the plasma membranes of the intestinal tract to be absorbed. […] Because of the molecular weight of 1411.6 Da, passive absorption of rimiducid through the intestinal aqueous porin channels is unlikely (Dahlgren et al., Pharmaceutics. 2019; 11(8):411. Published 2019 Aug. 13. doi:10.3390/pharmaceutics11080411).

[2] = Drug Bank Online; cited from earlier work
[3] = class IV characterisation, aqueous solubility; cited from earlier work

CC[C@H](C(=O)N1CCCC[C@H]1C(=O)O[C@H](CCc1ccc(OC)c(OC)c1)c1cccc(OCC(=O)NCCNC(=O)COc2cccc([C@@H](CCc3ccc(OC)c(OC)c3)OC(=O)[C@@H]3CCCCN3C(=O)[C@@H](CC)c3cc(OC)c(OC)c(OC)c3)c2)c1)c1cc(OC)c(OC)c(OC)c1 [Rimiducid, rimiducid]
theoretical maximal solubility of rimiducid within the upper GI tract [1]: less than 250 μg | water solubility [2]: less than 0.5 μg/mL | volume required to dissolve an effective dose [3]: greater than 250 milliliters
